Experimental data: patent US11103525B2, “Idoxuridine and its analogs as neuroprotectans for the treatment of parkinsonism” (priority 2017, dated 2021)

Assays:
Assay type in all cases: cell-based, mouse
[1] = system: GPR37-tGFP overexpressing cells; test: Cytoprotection against H2O2, GPR37-tGFP overexpressing cells; conditions: in-well H2O2 0.00025%, compared with WT cells
Source text: FIG. 10: Cytoprotection of Idoxuridine against […]. H2O2 reduces cell viability by increasing oxidative stress. This effect was counteracted by idoxuridine in GPR37-tGFP overexpressing cells (A) and WT (B) cells. […] In-well H2O2 concentration used was 0.00025%. […]

[2] = system: GPR37-tGFP; test: GPR37-tGFP translocation assay; conditions: 72 h
Procedure: FIG. 2. Schematic representation of the rationale and the basic steps of GPR37-translocation assay. A. GPR37 is prone to misfolding and aggregation, which, in metabolically-active cells, are followed by degradation and results in low levels of functional receptor in the plasma membrane. The primary targets of the screening assay are compounds that can directly or indirectly facilitate maturation and trafficking of GPR37 to the plasma membrane. B. N2a cells stably expressing GPR37-tGFP are seeded in poly-D-Lysine coated 384 well plates at density 5000 cells/well. 24 h later cells are treated with compounds, including positive and negative controls, and incubated for 72 h. Then cells are fixed with 4% PFA and additionally stained with Hoechst 33342 (nuclei) and HCS CellMask™ red (cell body) to enable segmentation of the plasma membrane. Acquisition of fluorescence images is done using ImageXpress high content screening system (Molecular Devices). Quantification of GPR37-tGFP levels in the plasma membrane is done using CellProfiler software. FIG. 3. Schematic representation of Image analysis pipeline and final outcome data. Segmentation of the plasma membrane is performed in five main steps: 1) identification of nuclei (primary objects) using nuclear stain, 2) determination of cell borders using primary objects as seeds and growing these objects in respect of tGFP and HCS CellMask™ fluorescence intensity (secondary objects), 3) shrinking and expending secondary objects, 4) subtraction of shrunken cells from expended cells which results in membrane segmentation (tertiary objects), 5) tGFP fluorescence intensity is calculated within tertiary objects. Z′ factor is a quality measure of an assay which describes how well separated positive and negative controls are. Assays having Z′ factors above 0.5 are considered good assays. N2a cells stably expressing GPR37-tGFP were seeded in 384 BDFalcon BioCoat Poly-D-Lysine coated plates at a density of 5000 cells/well, and 50 μL incubation volume of maintenance medium. Cells were incubated at 37° C., 5% CO2 using humidity chamber. 24 h later, the cells were treated with 10 μL of compounds of desired concentration, including positive (2 mM dibutyryl-cAMP+0.5 mM 4-phenylbutyrate) and negative controls (0.1% DMSO), and incubated for 72 h. Cells were fixed with 4% PFA by adding 20 μL of 16% PFA directly to cell medium, incubating for 20 min and washing with PBS-Tween20 (0.05%). Directly after fixation cells were stained for nuclei with Hoechst 33342 (0.01 mg/mL) and for cell bodies with HCS CellMask™ Red stain (Thermo Fisher Scientific Inc.) (0.001 mg/mL) by incubating with the dyes for 30 min in PBS-Tween20 (0.05%) followed by washing with PBS. All the additional steps, including cell seeding were performed using Multidrop Combi dispenser (Thermo Scientific) and washing steps were done by means of HydroSpeed™ plate washer (Tecan). The images were captured using ImageXpress Micro XLS Widefield High-Content Analysis System (Molecular Devices, LLC) in 3 fluorescent channels (ImageXpress filters are listed, followed by excitation/emission in nm): DAPI (387/447), FITC (482/536) and TexasRed (562/624). Binning 2 was applied during the acquisition and digital confocal option was used for FITC and TexasRed filters. Typically, 5 images were taken per well at magnification 20× and stored as 16 bit, gray scale tif files along with metadata in Oracle database, for further analysis. Quantification of GPR37-tGFP levels in the plasma membrane was done using CellProfiler™ software. CellProfiler™ is an open-source cell image analysis software available at www.cellprofiler.org. An image analysis pipeline used for membrane segmentation consisted of 5 main steps (FIG. 3): 1) segmentation of nuclei (primary objects); 2) segmentation of cell bodies (secondary objects); 3) shrinking and expending cell bodies; 4) subtraction of shrank cells from expanded cells (tertiary objects—membranes); 5) calculating tGFP fluorescence in the membranes. […]

[3] = system: WT cells; test: Cytoprotection against Eeyarestatin (EeI), WT cells
Procedure: FIG. 9: Cytoprotection of Idoxuridine against Eel. Eeyarestatin (Eel) is a potent inhibitor of endoplasmic reticulum associated protein degradation (ERAD) pathway, specifically targeting p97. Eel-mediated reduction of cell viability is counteracted by idoxuridine in both GPR37-tGFP overexpressing cells (A) and WT (B) cells. Data represented as mean+SD. Analysis performed via one-way ANOVA with Neuman-Keuls post-test for both Figures. *** indicates p<0.001.
Eeyarestatin (EeI) is a potent inhibitor of endoplasmic reticulum associated protein degradation (ERAD) pathway, specifically targeting p97.

[4] = system: GPR37-tGFP overexpressing cells; test: Cytoprotection against MG132, GPR37-tGFP overexpressing cells
Procedure: (§1) FIG. 8: Cytoprotection of Idoxuridine against MG132. MG132-induced proteasomal inhibition reduced cell viability. […] Data represented as mean+SD. Analysis performed via one-way ANOVA with Neuman-Keuls post-test for both Figures. *** indicates p<0.001. 2 mM 4-PBA used as a positive unspecific control. MG132 is a potent 26S proteasome inhibitor which increases protein accumulation, ROS leakage, induces cell cycle arrest and apoptosis.

[5] = system: wildtype cells; test: Cytoprotection against MG132, wildtype cells
Procedure: as §1

**Q.** What does the source list for `O=c1[nH]c(=O)n([C@H]2C[C@H](O)[C@@H](CO)O2)cc1I` [Idoxuridine, 2′-deoxy-5-iodouridine]?
**A.** effect on H2O2-induced reduction of cell viability [1]: significantly stronger; concentration up to which GPR37-tGFP level at the plasma membrane increases in a dose response manner ([2]; dose response): around 5 μM; EC50 ([2]; dose response, read-out: concentration giving 50% activity of positive control (GPR37-tGFP level at the plasma membrane)): ~1000 nM; GPR37-tGFP level in the plasma membrane, activity of positive control ([2]; primary screen, 10 μM, positive control (dibutyryl-cAMP + 4-phenylbutyrate) = 100%): about 100%; effect on EeI-mediated reduction of cell viability [3]: counteracted; effect on MG132-induced reduction of cell viability [4]: potently counteracted; effect on MG132-induced reduction of cell viability [5]: some neuroprotection
